Data from US5245034A, “Compound having vessel smooth muscle relaxation activity” (Hidaka; Kiroyoshi, priority 1988, dated 1993).

Assays:
[1] = test system: superior mesenteric artery (contracted by potassium chloride); experiment: Vessel Smooth Muscle Relaxation Action (V.R.); assay type: cell-based, rabbit; settings: Oryctolagus cuniculus; concentration relaxing KCl-contracted strain to 50%; cumulative administration; read-out: V.R. (ED50)
Description: The specimen was suspended by loading a strain in Krebs-Henseleit solution through which an oxygen gas containing 5% carbon dioxide was bubbled. The specimen was contracted by adding potassium chloride to maintain a predetermined strain. Thereafter, a test compound was cumulatively administrated.

[2] = molecular target: Calmodulin-Dependent Phosphodiesterase (Ca^2+ PDE); experiment: Calmodulin-Dependent Phosphodiesterase Inhibition (Ca^2+ PDE); assay type: biochemical, rat; settings: [^3 H]-cGMP, 30° C.
Experimental: Phosphodiesterase (Ca^2+ PDE)Ca^2+ PDE was partially purified from the brain of rat by DEAE-Sepharose column chromatography.
Calmodulin was purified from the calf brain using a calmodulin inhibitor W-7 affinity column.
A reaction mixture contained 20 μl of 500 mM Tris-HCl (pH 8.0), 20 μl of 50 mM MgCl2, 20 μl of 2 mM CaCl2 (or 10 mM EGTA), 20 μl of 1 mg/ml bovine serum albumin, PDE, […] of calmodulin, test sample and distilled water to make total volume 200 μl. To the mixture was added 20 μl of 4 μM [^3 H]-cGMP (2.5 μCi/ml), the mixture was incubated at 30° C. for 15 minutes, and then heated in boiling water for 3 to 5 minutes to terminate the reaction, and cooled in ice-water bath. 20 μg of 5'-nucleotidase (Snake venum) was added to the mixture, and the mixture was again incubated at 30° C. for 10 minutes. After addition of about 2 ml of water, the sample was applied to a cation exchange resin column (Biorad AG.AG50W-X4 to adsorbe the [^3 H]-guanosine and additionally about 2 ml of washing water for the sample was added to the column. The column was washed with about 20 ml of water, and the adsorbed [^3 H]-guanosine was eluted with 3 ml of 3N NH4 OH, and the elute was directly received by a vial. After an addition of 10 ml of an emulsified scintillation solution (ACS-II, AMERSHAM) the radio activity was measured by a scintillation counter LS7500 (Beckmann). The enzyme activity in the presence of calmodulin was taken as […], and a concentration of a test compound in μM which provides a 50% inhibition was expressed as IC50.

SMILES | EC50 [1] | IC50 [2]
CN(C(Cc1ccc(NS(C)(=O)=O)cc1)C(=O)N1CCN(c2ccccc2)CC1)S(=O)(=O)c1cccc2cnccc12 (stereo not shown) [Example 19, 1-[N-(5-Isoquinolinesulfonyl)-P-Methanesulfonylamino-N-Methylphenylalanyl]-4-Phenylpiperazine] | 22 µM | 20 µM
CN(C(Cc1ccc(NS(=O)(=O)c2cccc3ccccc23)cc1)C(=O)N1CCN(c2ccccc2)CC1)S(=O)(=O)c1cccc2cnccc12 (stereo not shown) [Example 20, 1-[N-(5-isoquinolinesulfonyl)-N-methyl-p-(1-naphtharenesulfonylamino)phenylalanyl]-4-phenylpiperazine] | 1 µM | 23 µM
CN(c1ccc(CC(C(=O)N2CCN(c3ccccc3)CC2)N(C)S(=O)(=O)c2cccc3cnccc23)cc1)S(C)(=O)=O (stereo not shown) [Example 24, 1-[N-(5-isoquinolinesulfonyl)-p-(N'-methanesulfonyl-N'-methylamino) N-methylphenylalanyl]-4-phenylpiperazine] | 8.3 µM | 63 µM
CN(c1ccc(CC(C(=O)N2CCN(c3ccccc3)CC2)N(C)S(=O)(=O)c2cccc3cnccc23)cc1)S(=O)(=O)c1cccc2ccccc12 (stereo not shown) [Example 25, 1-{N-(5-isoquinolinesulfonyl)-N-methyl-p-[N'-methyl-N'-(1-naphtharenesulfonyl)amino]phenylalanyl}-4-phenylpiperazine] | 0.55 µM | 70 µM
CN(C(Cc1ccc(O)cc1)CN1CCN(c2ccccc2)CC1)S(=O)(=O)c1cccc2cnccc12 (stereo not shown) [Example 36, N-[1-(P-Hydroxybenzyl)-2-(4-Phenylpiperazinyl)Ethyl]-N-Methyl-5-Isoquinolinesulfonamide] | 0.81 µM | 10.5 µM
CN(C(Cc1ccc(OS(=O)(=O)c2cccc3ccccc23)cc1)CN1CCN(c2ccccc2)CC1)S(=O)(=O)c1cccc2ccccc12 (stereo not drawn) [Example 57, N-methyl-N-{1-[p-(α-naphtharenesulfonyloxy) -benzyl]-2-(4-phenylpiperazinyl)ethyl}-α-naphtharenesulfonamide] | 0.75 µM | 50 µM
CN(C(Cc1ccc(O)cc1)CN1CCN(c2ccccc2)CC1)S(=O)(=O)c1cccc2ccccc12 (stereo not drawn) [Example 58, N-[1-(p-hydroxybenzyl)-2-(4-phenylpiperazinyl)ethyl]-N-methyl-α-naphtharenesulfonamide] | 0.25 µM | 63 µM
O=S(=O)(NC(Cc1ccc(O)cc1)CN1CCCN(c2ccccc2)CC1)c1cccc2cnccc12 (stereo not shown) [Example 82, N-[1-(P-Hydroxybenzyl)-2-(4-Phenylhomopiperazinyl)Ethyl]-5-Isoquinolinesulfonamide] | 0.86 µM | 33 µM
CN(C(Cc1ccc(O)cc1)CN1CCCN(c2ccccc2)CC1)S(=O)(=O)c1cccc2cnccc12 (stereo not shown) [Example 83, N-[1-(P-Hydroxybenzyl)-2-(4-Phenylhomopiperazinyl)Ethyl]-N-Methyl-5-Isoquinolinesulfonamide] | 0.39 µM | 24 µM
CN(C(Cc1ccc(O)cc1)CN1CCC(c2ccccc2)CC1)S(=O)(=O)c1cccc2cnccc12 (stereo not shown) [Example 93, N-[1-(p-hydroxybenzyl)-2-(4-phenylpiperidino)ethyl]-N-methyl-5-isoquinolinesulfonamide] | 0.31 µM | 3.4 µM
Cc1ccc(CN(C(Cc2ccc(O)cc2)CN2CCC(O)CC2)S(=O)(=O)c2cccc3cnccc23)cc1 (stereo not shown) [Example 106, N-[1-(P-Hydroxybenzyl)-2-(4-Hydroxypiperidino)Ethyl]-N-P-Methylbenzyl-5-Isoquinolinesufonamide] | 8.9 µM | 28 µM
CN([C@@H](Cc1ccc(O)cc1)C(=O)N1CCN(c2ccccc2)CC1)S(=O)(=O)c1cccc2cnccc12 [Example 110, 1-[N-(5-Isoquinolinesulfonyl)-N-Methyltyrosyl]-4-Phenylpiperazine] | 3.8 µM | 9.3 µM
O=C([C@H](Cc1ccc(O)cc1)NS(=O)(=O)c1cccc2cnccc12)N1CCN(c2ccccc2)CC1 [Example 111, 1-[N-(5-isoquinolinesulfonyl)tyrosyl]-4-phenylpiperazine] | 7 µM | 77 µM
O=C(CCc1ccccc1)N1CCCN(CC(Cc2ccc(O)cc2)NS(=O)(=O)c2cccc3cnccc23)CC1 (stereo not shown) [Example 119, N-{1-(P-Hydroxybenzyl)-2-[4-(3-Phenylpropionyl)Homopiperazinyl]Ethyl}-5-Isoquinolinesulfonylamide] | 11 µM | 51 µM
O=S(=O)(Nc1ccccc1NCC=Cc1ccc(Cl)cc1)c1cccc2cnccc12 [Example 142, N-[2-(4-Chlorocinnamylamino)Phenyl]-5-Isoquinolinesulfonamide] | 6.8 µM | 1.1 µM
CN(c1ccccc1NCC=Cc1ccc(Cl)cc1)S(=O)(=O)c1cccc2cnccc12 [Example 143, N-[2-(4-Chlorocinnamylamino)Phenyl]-N-Methyl-5 -Isoquinolinesulfonamide] | 0.82 µM | 15 µM
O=S(=O)(c1cccc2cnccc12)N1CCN(CC=Cc2ccc(Cl)cc2)c2ccccc21 [Example 144, 1-(4-Chlorocinnamyl)-4-(5-Isoquinolinesulfonyl)-1,2,3,4-Tetrahydroquinoxaline] | 1.8 µM | 1 µM

Continued, values first:

EC50 [1] | IC50 [2] | SMILES
0.25 µM | 66 µM | CN(c1ccc(CC(C(=O)N2CCN(c3ccccc3)CC2)N(C)S(=O)(=O)c2cccc3cnccc23)cc1)S(=O)(=O)c1cccc2cnccc12 (stereo not shown) [Example 23, 1-{N-(5-Isoquinolinesulfonyl)-P-[N'-(5-Isoquinolinesulfonyl)-N'-Methylamino]-N-Methylphenylalanyl}-4-Phenylpiperazine]
3.9 µM | 6.5 µM | O=S(=O)(NC(Cc1ccc(OS(=O)(=O)c2cccc3cnccc23)cc1)CN1CCN(c2ccc(F)cc2)CC1)c1cccc2cnccc12 (stereo not shown) [Example 48]
2.4 µM | 13 µM | O=S(=O)(NC(Cc1ccc(OS(=O)(=O)c2cccc3cnccc23)cc1)CN1CCCN(c2ccccc2)CC1)c1cccc2cnccc12 (stereo not shown) [Example 80]
13 µM | 24 µM | O=S(=O)(NC(Cc1ccc(OS(=O)(=O)c2cccc3cnccc23)cc1)CN1CCC(OCc2ccc(Cl)c(Cl)c2)CC1)c1cccc2cnccc12 (stereo not shown) [Example 86]
1.7 µM | 1.9 µM | O=S(=O)(NC(Cc1ccc(O)cc1)CN1CCC(OCc2ccc(Cl)c(Cl)c2)CC1)c1cccc2cnccc12 (stereo not shown) [Example 87, N-{1-(p-hydroxybenzyl)-2-[4-(3,4-dichlorobenzyloxy)piperidino]ethyl}-5-isoquinolinesulfonamide]
4.3 µM | 14 µM | O=S(=O)(NC(Cc1ccc(OCc2ccccc2)cc1)CN1CCN(c2ccccc2)CC1)c1cccc2cnccc12 (stereo not shown) [Example 88, N-{1-[(4-benzyloxy)benzyl]-2-(4-phenylpiperazinyl)ethyl}-5-isoquinolinesulfonamide]
0.33 µM | 3.4 µM | CN(C(Cc1ccc(O)cc1)CN1CCC(OCc2ccc(Cl)c(Cl)c2)CC1)S(=O)(=O)c1cccc2cnccc12 (stereo not shown) [Example 90, N-{2-[4-(3,4-Dichlorobenzyloxy)Piperidino]-1-(P-Hydroxybenzyl)Ethyl}-N-Methyl-5-Isoquinolinesulfonamide]
1.1 µM | 10 µM | COc1ccc(CC(CN2CCC(OCc3ccc(Cl)c(Cl)c3)CC2)N(C)S(=O)(=O)c2cccc3cnccc23)cc1 (stereo not shown) [Example 91, N-{2-[4-(3,4-Dichlorobenzyloxy)Piperidine]-1-(P-Methoxybenzyl)Ethyl}-N-Methyl-5-Isoquinolinesulfonamide]
2.8 µM | 61 µM | CN(C(Cc1ccc(OS(=O)(=O)c2cccc3cnccc23)cc1)CN1CCC(O)CC1)S(=O)(=O)c1cccc2cnccc12 (stereo not shown) [Example 99, N-{2-(4-Hydroxypiperidino)-1-[P-(5-Isoquinolinesulfonyloxy)Benzyl]Ethyl}-N-Methyl-5-Isoquinolinesulfonamide]
5.4 µM | 12 µM | O=S(=O)(c1cccc2cnccc12)N(Cc1ccc(Cl)c(Cl)c1)C(Cc1ccc(O)cc1)CN1CCC(O)CC1 (stereo not shown) [Example 105, N-3,4-Dichlorobenzyl-N-[1-(P-Hydroxybenzyl)-2-(4-Hydroxypiperidino)Ethyl]-5-Isoquinolinesulfonamide]
1.2 µM | 10 µM | O=C([C@H](Cc1ccc(OS(=O)(=O)c2cccc3cnccc23)cc1)NS(=O)(=O)c1cccc2cnccc12)N1CCN(c2ccccc2)CC1 [Example 108, 1-[N,O-Bis(5-Isoquinolinesulfonyl)Tyrosyl]-4-Phenylpiperazine]
0.59 µM | 1.3 µM | CN([C@@H](Cc1ccc(OS(=O)(=O)c2cccc3cnccc23)cc1)C(=O)N1CCN(c2ccccc2)CC1)S(=O)(=O)c1cccc2cnccc12 [Example 109, 1-[N,O-Bis(5-Isoquinolinesulfonyl)-N-Methyltyrosyl]-4-Phenylpiperazine]
